{
  "source": "paper PMC11117721",
  "about": "“A Fast-Binding, Functionally Reversible, COX-2 Radiotracer for CNS PET Imaging” (ACS Central Science, 2024)",
  "biological_target": "T1, COX-2 (Rattus norvegicus, UniProt P35355)",
  "T1 construct": "endogenous COX-2 expression in naïve rats; from tissue; host or cells: brain of living naive rats",
  "T1 sequence (P35355 18-604)": "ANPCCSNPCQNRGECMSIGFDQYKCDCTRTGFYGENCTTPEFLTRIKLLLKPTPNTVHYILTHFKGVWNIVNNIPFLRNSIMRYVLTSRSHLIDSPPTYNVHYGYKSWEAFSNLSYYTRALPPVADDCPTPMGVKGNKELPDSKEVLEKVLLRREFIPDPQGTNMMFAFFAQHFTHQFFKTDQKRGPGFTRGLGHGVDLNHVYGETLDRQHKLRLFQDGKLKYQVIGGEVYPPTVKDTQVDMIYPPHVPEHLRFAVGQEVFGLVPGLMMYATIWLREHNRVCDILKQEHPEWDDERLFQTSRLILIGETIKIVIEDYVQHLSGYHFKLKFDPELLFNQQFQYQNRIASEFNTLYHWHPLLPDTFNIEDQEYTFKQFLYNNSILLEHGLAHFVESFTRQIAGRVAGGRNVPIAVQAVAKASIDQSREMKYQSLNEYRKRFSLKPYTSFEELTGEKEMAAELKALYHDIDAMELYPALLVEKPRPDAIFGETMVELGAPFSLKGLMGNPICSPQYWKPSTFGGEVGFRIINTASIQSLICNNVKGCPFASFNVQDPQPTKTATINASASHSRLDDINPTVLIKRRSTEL",
  "experiment": "PET neuroimaging of naïve rats",
  "settings": "in vivo PET, result in words",
  "description": "deepest would be injected and allowed to perfuse for 15 min until all three injections were completed.\nIn some experimental groups, mannitol was injected intraperitoneally (IP) or co -administered with the […]\nAfter the surgical procedure was completed, animals were given enough time to recover (generally 28 days post-surgery) to facilitate cellular transduction with the AAV as well as subsequent expression of COX -2 and GFP, before subsequent imaging or IHC interrogation was conducted.\nRodent PET/MRI Acquisition\nAll PET and MRI experimental procedures were acquired on a 4.7 Tesla PET-MRI scanner using a B-GA20S HP gradient coil with a PET Insert Si 198 (Bruker Biospin, Billerica, MA). Custom 3D-printed cradles were used to secure anesthetized animals in the scanner. Rat and mice experimental groups were imaged separately. For rats, one animal was placed head-prone, and the other was placed tail-prone, aligning their heads in the scanner. For rat blocking experiments celecoxib was formulated in 20% ethanol, 30% polyethylene glycol and 50% saline and diluted appropriately to administer 1 mL/kg. For mice, up to six mice were inserted, two head prone and four tail prone. ParaVision 6 (Bruker) was used to acquire MR images, and ParaVision 360 (Bruker) was used to obtain PET images. […]",
  "data": [
    {"molecule": "[11CH3]S(=O)(=O)c1ccc(-c2cccc(NCc3ccoc3)n2)cc1", "note": "[[^11C]BRD1158]", "values": [
      {"measurement": "brain uptake", "value": "rapid and robust brain uptake"}
    ]}
  ]
}
